# Measured values reported in PMC10141580, “Cyclic Dichalcogenides Extend the Reach of Bioreductive Prodrugs to Harness Thiol/Disulfide Oxidoreductases: Applications to seco-Duocarmycins Targeting the Thioredoxin System” (ACS Central Science, 2023).
# Where “and” joins values, the source holds several entries; their conditions need not be identical. Equal entries are not always repeated. Where two headings read alike, the source gives them in different places.
# Assays:
# [1] = system: HeLa-HRE cells; test: Resazurin cytotoxicity assay, HeLa-HRE, 48 h
# Protocol: We used A549 lung cancer and HeLa cervical cancer cell lines for initial screening of the prodrugs.
# HeLa-HRE cells were treated with prodrugs of the
# Dose -response curves were calculated from at least 27 incremental single concentrations over a
# range of at least three log units.
# [2] = system: NCI-60 standardized human tumor cell line panel; test: cells; assay type: cell-based
smiles,measurement,setting,value
COc1cc2cc(C(=O)N3C[C@@H](CCl)c4c3cc(OC(=O)N(CCC(=O)N3CCN(C)CC3)C3CCCCC3)c3ccccc43)[nH]c2c(OC)c1OC [P-CC60-CBI-TMI],IC50,"[1]; initial screening, A549 and HeLa cell lines",> 1000 nM
same,IC50(HeLa)/IC50(A549),[1]; ratio HeLa vs A549,0.7
same,IC50,"[1]; read-out: IC50(nM): HeLa, HeLa, 48 h",1250 nM
same,NCI-60 screening: Log(GI50),[2],-5.81 and -5.62
same,NCI-60 screening: Log(GI50),"[2]; 786-0 (RE) cell line, log10 of GI50 in M",-5.76
same,GI50,"[2]; 786-0 (RE) cell line, read-out: NCI-60 screening: Raw GI50",1700 nM
same,GI50,"[2]; 786-0, read-out: GI50",1700 nM
same,NCI-60 screening: Log(GI50),"[2]; A498 (RE) cell line, log10 of GI50 in M",-5.56
same,GI50,"[2]; A498 (RE) cell line, read-out: NCI-60 screening: Raw GI50",2800 nM
same,GI50,"[2]; A498, read-out: GI50",2800 nM
same,GI50,"[2]; A549/ATCC, read-out: GI50",2000 nM
same,NCI-60 screening: Log(GI50),"[2]; ACHN (RE) cell line, log10 of GI50 in M",-6.31
same,GI50,"[2]; ACHN, read-out: GI50",490 nM
same,GI50,"[2]; BT-549, read-out: GI50",1600 nM
same,NCI-60 screening: Log(GI50),"[2]; CAKI-1 (RE) cell line, log10 of GI50 in M",-5.83
same,GI50,"[2]; CAKI-1 (RE) cell line, read-out: NCI-60 screening: Raw GI50",1500 nM
same,GI50,"[2]; CAKI-1, read-out: GI50",1500 nM
same,GI50,"[2]; CCRF-CEM, read-out: GI50",990 nM
same,GI50,"[2]; COLO 205, read-out: GI50",1400 nM
same,NCI-60 screening: Log(GI50),"[2]; DU-145 (PR) cell line, log10 of GI50 in M",-6.34
same,GI50,"[2]; DU-145, read-out: GI50",460 nM
same,GI50,"[2]; EKVX, read-out: GI50",1900 nM
same,GI50,"[2]; HCC-2998, read-out: GI50",1500 nM
same,GI50,"[2]; HCT-15, read-out: GI50",1700 nM
same,GI50,"[2]; HCT-116, read-out: GI50",1500 nM
same,GI50,"[2]; HL-60(TB), read-out: GI50",750 nM
same,GI50,"[2]; HOP-62, read-out: GI50",590 nM
same,GI50,"[2]; HOP-92, read-out: GI50",2500 nM
same,GI50,"[2]; HT29, read-out: GI50",1500 nM
same,NCI-60 screening: Log(GI50),"[2]; IGROV1 (OV) cell line, log10 of GI50 in M",-5.64
same,GI50,"[2]; IGROV1 (OV) cell line, read-out: NCI-60 screening: Raw GI50",2300 nM
same,GI50,"[2]; IGROV1, read-out: GI50",2300 nM
same,GI50,"[2]; K-562, read-out: GI50",680 nM
same,GI50,"[2]; KM12, read-out: GI50",2100 nM
same,GI50,"[2]; LOX IMVI, read-out: GI50",1100 nM
same,GI50,"[2]; M14, read-out: GI50",1500 nM
same,GI50,"[2]; MALME-3M, read-out: GI50",1600 nM
same,GI50,"[2]; MCF7, read-out: GI50",320 nM
same,GI50,"[2]; MDA-MB-435, read-out: GI50",1800 nM
same,GI50,"[2]; MDA-MB-468, read-out: GI50",690 nM
same,GI50,"[2]; MOLT-4, read-out: GI50",590 nM
same,"GI50/IC50, mean","[2]; NCI-60 vs ProliFiler, 19 overlapping cell lines",4.6
same,GI50,"[2]; NCI-H23, read-out: GI50",470 nM
same,GI50,"[2]; NCI-H226, read-out: GI50",1400 nM
same,NCI-60 screening: Log(GI50),"[2]; NCI-H460 (LC) cell line, log10 of GI50 in M",-6.29
same,GI50,"[2]; NCI-H460, read-out: GI50",510 nM
same,NCI-60 screening: Log(GI50),"[2]; NCI-H522 (LC) cell line, log10 of GI50 in M",-5.77
same,GI50,"[2]; NCI-H522 (LC) cell line, read-out: NCI-60 screening: Raw GI50",1700 nM
same,GI50,"[2]; NCI-H522, read-out: GI50",1700 nM
same,NCI-60 screening: Log(GI50),"[2]; OVCAR-3 (OV) cell line, log10 of GI50 in M",-5.68
same,GI50,"[2]; OVCAR-3 (OV) cell line, read-out: NCI-60 screening: Raw GI50",2100 nM
same,GI50,"[2]; OVCAR-3, read-out: GI50",2100 nM
same,NCI-60 screening: Log(GI50),"[2]; OVCAR-4 (OV) cell line, log10 of GI50 in M",-5.63
same,GI50,"[2]; OVCAR-4 (OV) cell line, read-out: NCI-60 screening: Raw GI50",2300 nM
same,GI50,"[2]; OVCAR-4, read-out: GI50",2300 nM
same,NCI-60 screening: Log(GI50),"[2]; OVCAR-5 (OV) cell line, log10 of GI50 in M",-5.29
same,GI50,"[2]; OVCAR-5, read-out: GI50",5100 nM
same,NCI-60 screening: Log(GI50),"[2]; OVCAR-8 (OV) cell line, log10 of GI50 in M",-5.78
same,GI50,"[2]; OVCAR-8 (OV) cell line, read-out: NCI-60 screening: Raw GI50",1700 nM
same,GI50,"[2]; OVCAR-8, read-out: GI50",1700 nM
same,NCI-60 screening: Log(GI50),"[2]; PC-3 (PR) cell line, log10 of GI50 in M",-5.5
same,GI50,"[2]; PC-3, read-out: GI50",3100 nM
same,GI50,"[2]; RPMI-8226, read-out: GI50",1500 nM
same,NCI-60 screening: Log(GI50),"[2]; RXF 393 (RE) cell line, log10 of GI50 in M",-5.97
same,GI50,"[2]; RXF 393 (RE) cell line, read-out: NCI-60 screening: Raw GI50",1100 nM
same,GI50,"[2]; RXF 393, read-out: GI50",1100 nM
same,GI50,"[2]; SF-268, read-out: GI50",1500 nM
same,GI50,"[2]; SF-295, read-out: GI50",1500 nM
same,GI50,"[2]; SF-539, read-out: GI50",1300 nM
same,GI50,"[2]; SK-MEL-5, read-out: GI50",1600 nM
same,GI50,"[2]; SK-MEL-28, read-out: GI50",3600 nM
same,NCI-60 screening: Log(GI50),"[2]; SK-OV-3 (OV) cell line, log10 of GI50 in M",-5.67
same,GI50,"[2]; SK-OV-3 (OV) cell line, read-out: NCI-60 screening: Raw GI50",2200 nM
same,GI50,"[2]; SK-OV-3, read-out: GI50",2200 nM
